Results as given in ChEMBL document CHEMBL5518164, “Membrane-permeable tenofovir-di- and monophosphate analogues” (Eur J Med Chem, 2024).
Active and inactive are the calls of the source. The calls are words filed in the database; no cut-off is given here.

Tests used:
[1] = tested on: Human immunodeficiency virus 2; test: Antiviral activity against HIV-2 ROD infected in wild type human CEM/0 cells assessed as inhibition of virus-induced giant cell formation incubated for 4 to 5 days by light microscopy; assay type: functional, organism-based; conditions: Human immunodeficiency virus 2, ROD, CCRF-CEM
[2] = Cytotoxicity against human CEM cells assessed as inhibition of cell proliferation; assay type: toxicity, cell-based, CCRF-CEM
[3] = Prodrug conversion of the compound in phosphate buffer saline assessed as (R)-9-(2-(phosphonomethoxy)propyl)adenine formation by measuring half life in presence of pig liver esterase at pH 7.3 by RP18-HPLC analysis; assay type: ADME, Sus scrofa
[4] = Prodrug conversion of the compound in phosphate buffer saline assessed as Tenofovir monophosphate by measuring half life in presence of pig liver esterase at pH 7.3 by RP18-HPLC analysis; assay type: ADME, Sus scrofa
[5] = Prodrug conversion of the compound in phosphate buffer saline assessed as (R)-9-(2-(phosphonomethoxy)propyl)adenine formation by measuring half life at pH 7.3 by RP18-HPLC analysis; assay type: ADME
[6] = tested on: Human immunodeficiency virus 1; test: Antiviral activity against HIV-1 HE infected in wild type human CEM/0 cells assessed as inhibition of virus-induced giant cell formation incubated for 4 to 5 days by light microscopy; assay type: functional, organism-based; conditions: Human immunodeficiency virus 1, HE, CCRF-CEM
[7] = Prodrug conversion of the compound in phosphate buffer saline assessed as Tenofovir monophosphate formation by measuring half life at pH 7.3 by RP18-HPLC analysis; assay type: ADME
[8] = tested on: Human immunodeficiency virus 2; test: Antiviral activity against HIV-2 ROD infected in thymidine kinase deficient human CEM cells assessed as inhibition of virus-induced giant cell formation incubated for 4 to 5 days by light microscopy; assay type: functional, organism-based; conditions: Human immunodeficiency virus 2, ROD, CCRF-CEM
[9] = Lipophilicity of the compound assessed as retention time by RP-HPLC analysis; assay type: physicochemical
[10] = Half life of the compound in human CEM/0 cell extracts by RP18-HPLC analysis; assay type: ADME, CCRF-CEM
[11] = Selectivity index, ratio of CC50 for cytotoxicity against human CEM cells to EC50 for antiviral activity against HIV-2 ROD infected in thymidine kinase deficient human CEM cells; assay type: toxicity, cell-based; conditions: read-out: Ratio CC50/EC50
[12] = biological target: T1, DNA polymerase subunit gamma-1 (Homo sapiens) (UniProt P54098); test: Substrate activity at human DNA polymerase gamma assessed as elongation of primer at 250 uM incubated for 120 mins in presence of primer/template mixture by primer extension assay based fluorescence analysis
T1 sequence (whole entry): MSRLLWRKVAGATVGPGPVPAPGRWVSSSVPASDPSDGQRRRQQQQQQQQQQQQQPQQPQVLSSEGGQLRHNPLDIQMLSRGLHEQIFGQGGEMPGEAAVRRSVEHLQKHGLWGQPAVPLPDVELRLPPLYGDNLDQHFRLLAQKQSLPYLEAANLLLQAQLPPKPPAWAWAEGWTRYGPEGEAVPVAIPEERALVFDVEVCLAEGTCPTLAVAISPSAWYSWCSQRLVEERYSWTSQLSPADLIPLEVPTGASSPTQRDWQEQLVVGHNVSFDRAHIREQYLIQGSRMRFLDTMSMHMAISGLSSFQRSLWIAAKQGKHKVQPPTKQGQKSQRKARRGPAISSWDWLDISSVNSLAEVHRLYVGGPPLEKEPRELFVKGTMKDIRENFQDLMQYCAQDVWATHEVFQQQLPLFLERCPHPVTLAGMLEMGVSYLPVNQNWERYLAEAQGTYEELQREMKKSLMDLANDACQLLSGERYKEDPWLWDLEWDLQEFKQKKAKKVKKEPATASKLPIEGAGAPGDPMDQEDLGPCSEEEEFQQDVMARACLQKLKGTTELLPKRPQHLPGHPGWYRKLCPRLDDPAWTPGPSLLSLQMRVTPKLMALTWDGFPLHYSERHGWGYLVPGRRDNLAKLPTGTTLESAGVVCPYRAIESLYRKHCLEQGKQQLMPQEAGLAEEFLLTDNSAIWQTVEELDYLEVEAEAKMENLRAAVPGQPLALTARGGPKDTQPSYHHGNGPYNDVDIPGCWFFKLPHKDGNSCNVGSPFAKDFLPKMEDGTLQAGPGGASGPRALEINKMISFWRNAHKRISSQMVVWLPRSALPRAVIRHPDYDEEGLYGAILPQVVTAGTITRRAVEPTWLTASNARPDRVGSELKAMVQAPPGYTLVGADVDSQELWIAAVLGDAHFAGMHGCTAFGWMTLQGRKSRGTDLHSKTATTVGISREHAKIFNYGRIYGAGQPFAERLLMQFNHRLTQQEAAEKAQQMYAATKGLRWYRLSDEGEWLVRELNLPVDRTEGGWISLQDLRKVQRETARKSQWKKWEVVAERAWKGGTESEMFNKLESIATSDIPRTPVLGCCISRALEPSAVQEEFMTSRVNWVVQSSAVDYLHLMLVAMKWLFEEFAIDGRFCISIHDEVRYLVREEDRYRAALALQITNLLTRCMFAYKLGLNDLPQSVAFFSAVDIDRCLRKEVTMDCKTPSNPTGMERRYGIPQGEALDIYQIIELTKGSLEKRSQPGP

[13] = tested on: Human immunodeficiency virus; test: Substrate activity at HIV reverse transcriptase assessed as elongation of primer at 250 uM incubated for 30 mins in presence of primer/template mixture and dNTPs by primer extension assay based fluorescence analysis
[14] = tested on: Human immunodeficiency virus; test: Substrate activity at HIV reverse transcriptase assessed as elongation of primer at 250 uM incubated for 30 mins in presence of primer/template mixture by primer extension assay based fluorescence analysis
[15] = Half life of the compound in phosphate buffer saline at pH 7.3 by RP18-HPLC analysis; assay type: ADME
[16] = tested on: Human immunodeficiency virus; test: Substrate activity at HIV reverse transcriptase assessed as n+1 band formation at 97.6 to 12500 uM incubated for 30 mins in presence of primer/template mixture and 250 uM dNTPs by primer extension assay based fluorescence analysis; conditions: dose 97.6-12500 µM
[17] = tested on: Human immunodeficiency virus; test: Inhibition of HIV reverse transcriptase assessed as inhibition of elongation of primer at 25000 uM incubated for 30 mins in presence of primer/template mixture and dNTPs by primer extension assay based fluorescence analysis
[18] = tested on: Human immunodeficiency virus; test: Substrate activity at HIV reverse transcriptase assessed as n+1 band formation incubated for 30 mins in presence of primer/template mixture by primer extension assay based fluorescence analysis
[19] = tested on: Human immunodeficiency virus; test: Substrate activity at HIV reverse transcriptase assessed as full elongation of primer by measuring n+5 band formation incubated for 30 mins in presence of primer/template mixture and dNTPs by primer extension assay based fluorescence analysis
[20] = biological target: T1, DNA polymerase subunit gamma-1 (Homo sapiens); test: Substrate activity at human DNA polymerase gamma assessed as elongation of primer at 250 uM incubated for 120 mins in presence of primer/template mixture and dNTPs by primer extension assay based fluorescence analysis
[21] = tested on: Human immunodeficiency virus; test: Inhibition of HIV reverse transcriptase assessed as inhibition of elongation of primer at 25000 uM incubated for 30 mins in presence of primer/template mixture and 250 uM dNTPs by primer extension assay based fluorescence analysis
[22] = tested on: Human immunodeficiency virus; test: Substrate activity at HIV reverse transcriptase assessed as elongation of primer at 97.6 to 12500 uM incubated for 30 mins in presence of primer/template mixture and dNTPs by primer extension assay based fluorescence analysis; conditions: dose 97.6-12500 µM
[23] = tested on: Human immunodeficiency virus; test: Substrate activity at HIV reverse transcriptase assessed as n+1 band formation incubated for 30 mins in presence of primer/template mixture and dNTPs by primer extension assay based fluorescence analysis
[24] = tested on: Human immunodeficiency virus; test: Substrate activity at HIV reverse transcriptase assessed as elongation of primer at 97.6 to 12500 uM incubated for 30 mins in presence of primer/template mixture and 250 uM dNTPs by primer extension assay based fluorescence analysis; conditions: dose 97.6-12500 µM
[25] = tested on: Human immunodeficiency virus; test: Substrate activity at HIV reverse transcriptase assessed as n+1 band formation at 25000 uM incubated for 30 mins in presence of primer/template mixture and dNTPs by primer extension assay based fluorescence analysis
[26] = tested on: Human immunodeficiency virus 2; test: Potency index, ratio of Tenofovir EC50 to test compound EC50 for antiviral activity against HIV-2 ROD infected in thymidine kinase deficient human CEM cells; assay type: functional
[27] = tested on: Human immunodeficiency virus; test: Substrate activity at HIV reverse transcriptase assessed as n+1 band formation incubated for 30 mins in presence of primer/template mixture and 2.6 fold excess of dNTPs by primer extension assay based fluorescence analysis
[28] = tested on: Human immunodeficiency virus 1; test: Potency index, ratio of Tenofovir EC50 to test compound EC50 for antiviral activity against HIV-1 HE infected in wild type human CEM/0 cells; assay type: functional
[29] = tested on: Human immunodeficiency virus 2; test: Potency index, ratio of Tenofovir EC50 to test compound EC50 for antiviral activity against HIV-2 ROD infected in wild type human CEM/0 cells; assay type: functional
[30] = Drug hydrolysis in phosphate buffer saline incubated for 500 hrs at pH 7.3 by RP18-HPLC analysis; assay type: physicochemical; conditions: read-out: Drug degradation
[31] = Drug hydrolysis in phosphate buffer saline incubated for 600 hrs at pH 7.3 by RP18-HPLC analysis; assay type: physicochemical; conditions: read-out: Drug degradation

Row | EC50 [1] | t1/2 [3] | t1/2 [5] | EC50 [6] | EC50 [8] | Retention_time [9] | half-life [10] | Activity [12] | inhibition [17] | Activity [18] | Activity [19] | Activity [20] | inhibition [21] | Activity [23] | SMILES | CC50 [2] | selectivity ratio [11] | also measured
1 |  |  |  |  |  |  |  | inactive |  |  |  |  |  |  | C[C@H](Cn1cnc2c(N)ncnc21)OCP(=O)(O)OP(=O)(O)O |  |  | Activity [13]: Active; Activity [14]: Active
2 | 1760 nM |  |  | 2080 nM | 880 nM | 6.6 min |  | inactive |  |  |  |  |  |  | C[C@H](Cn1cnc2c(N)ncnc21)OCP(=O)(O)O [TENOFOVIR ANHYDROUS] | > 100000 nM | > 113 | Activity [13]: Active; half-life [15]: > 1000 h; Activity [14]: inactive
3 |  |  |  |  |  |  |  | inactive | Active | Active | Active | Active | Active | Active | C[C@H](Cn1cnc2c(N)ncnc21)OCP(=O)(O)OP(=O)(O)OP(=O)(O)O |  |  | Activity [16]: Active; Activity [22]: Active; Activity [24]: Active; Activity [25]: inactive
4 | 700 nM | > 50 h | > 200 h | 360 nM | 27 nM | 14.2 min | > 8 h | inactive | Active | Active | Active | Active | Active | inactive | CCCCCCCCCCCCCCCCCCOP(=O)(O)OP(=O)(O)OP(=O)(O)CO[C@H](C)Cn1cnc2c(N)ncnc21 | > 100000 nM | > 3700 | Ratio EC50 [26]: 32; Activity [27]: Active
5 | 5550 nM |  |  | 5270 nM | 4620 nM | 12.5 min |  | inactive | Active | Active | Active | Active | Active | inactive | CCCCCCCCCCCOP(=O)(O)OP(=O)(O)OP(=O)(O)CO[C@H](C)Cn1cnc2c(N)ncnc21 | > 100000 nM | > 21 | Activity [27]: Active
6 | 76 nM | 0.683 h | 51 h | 150 nM | 58 nM | 17.5 min | 2.1 h |  |  |  |  |  |  |  | CCCCCCCCCCCCCCCCCCOP(=O)(OCc1ccc(OC(=O)CCCC)cc1)OP(=O)(O)OP(=O)(O)CO[C@H](C)Cn1cnc2c(N)ncnc21 (stereo partly drawn) | 57200 nM | 986 | Ratio EC50 [28]: 13; Ratio EC50 [29]: 23
7 | 140 nM |  |  | 640 nM | 55 nM | 16.3 min | > 8 h |  |  |  |  |  |  |  | CCCCCCCCCCCCCCCCCCP(=O)(OCCCCCCCC)OP(=O)(O)OP(=O)(O)CO[C@H](C)Cn1cnc2c(N)ncnc21 (stereo partly drawn) | 48500 nM | 882 | degraded at 500 h [30]: 36%; half-life [15]: > 500 h; degraded at 600 h [31]: 43%

Row | SMILES | EC50 [1] | t1/2 [3] | t1/2 [5] | EC50 [6] | EC50 [8] | Retention_time [9] | half-life [10] | Activity [12] | inhibition [17] | Activity [18] | Activity [19] | Activity [20] | inhibition [21] | Activity [23] | CC50 [2] | selectivity ratio [11] | also measured
8 | CCCCCCCCC(=O)Oc1ccc(COOP(=O)(O)OP(=O)(O)OP(=O)(O)CO[C@H](C)Cn2cnc3c(N)ncnc32)cc1 | 350 nM | 0.00267 h | 9 h | 1130 nM | 560 nM | 16.4 min | 0.97 h |  |  |  |  |  |  |  | 48900 nM | 87 | t1/2 [4]: 3.6 s; t1/2 [7]: > 200 h
